Reference: ChEMBL document CHEMBL5143737, “Identification of Human Alanine-Glyoxylate Aminotransferase Ligands as Pharmacological Chaperones for Variants Associated with Primary Hyperoxaluria Type 1” (J Med Chem, 2022)

Legend:
Format in all cases: toxicity, cell-based, Cricetulus griseus
Conditions in all cases: chinese hamster, 168 h, time 7 day
CHO [1] = assay: Cytotoxicity against CHO cells expressing AGT and glycolate oxidase assessed as reduction in cell viability at 50 uM measured after 7 days by crystal violet staining assay
CHO [2] = assay: Cytotoxicity against CHO cells expressing AGT G41R variant and glycolate oxidase assessed as reduction in cell viability at 50 uM measured after 7 days by crystal violet staining assay
CHO [3] = assay: Cytotoxicity against CHO cells expressing AGT G41R variant and glycolate oxidase assessed reduction in cell viability at 50 uM measured after 7 days in presence of pyridoxine by crystal violet staining assay

Row | Structure (SMILES) | Activity (CHO [1]) | Activity (CHO [2]) | Activity (CHO [3])
1 | Cl.NOCc1ccc(F)cc1F | Non-Toxic | Non-Toxic | 
2 | NOCc1cc2ccccc2s1 | Non-Toxic |  | 
3 | COc1c(C)cnc(CON)c1C | Non-Toxic | Non-Toxic | Non-Toxic
4 | NOCc1cccc(-c2ccc(C(F)(F)F)cc2)c1 | Non-Toxic | Non-Toxic | Non-Toxic
5 | CN1CCN(c2cccc(CON)c2)CC1 | Toxic | Toxic | Toxic
